Measurements reported in patent US8546579B2, “Bicycloheteroaryl compounds as P2X7 modulators and uses thereof” (Evotec (US) Inc., priority 2006, dated 2013).

Target: T1, P2X7 receptor (Homo sapiens, UniProt Q99572)
T1 construct: host or cells: THP-1 cells differentiated with LPS and IFN-γ
T1 sequence (Q99572 1-595): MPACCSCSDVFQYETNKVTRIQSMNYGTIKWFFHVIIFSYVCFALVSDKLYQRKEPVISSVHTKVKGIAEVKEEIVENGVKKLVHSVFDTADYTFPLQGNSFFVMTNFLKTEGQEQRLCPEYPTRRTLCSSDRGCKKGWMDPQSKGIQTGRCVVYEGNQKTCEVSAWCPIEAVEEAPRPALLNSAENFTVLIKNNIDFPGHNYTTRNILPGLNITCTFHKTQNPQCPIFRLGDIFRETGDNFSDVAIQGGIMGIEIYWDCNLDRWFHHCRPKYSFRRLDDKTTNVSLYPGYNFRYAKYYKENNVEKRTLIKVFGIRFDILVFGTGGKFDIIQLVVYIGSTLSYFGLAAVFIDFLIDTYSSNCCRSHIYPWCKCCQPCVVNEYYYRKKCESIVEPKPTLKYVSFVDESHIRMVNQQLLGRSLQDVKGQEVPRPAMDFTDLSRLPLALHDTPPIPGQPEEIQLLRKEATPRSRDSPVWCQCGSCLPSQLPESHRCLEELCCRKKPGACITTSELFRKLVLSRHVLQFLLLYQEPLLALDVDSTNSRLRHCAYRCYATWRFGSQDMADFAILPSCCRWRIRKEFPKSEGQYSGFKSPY
Experiment: IL-1β release assay in differentiated THP-1 cells stimulated with BzATP (Example 9)
Assay type: cell-based
Parameters: inhibition: dose or concentration left out as unconfirmed
Settings: 0.1 μM compound; differentiated THP-1 cells, BzATP 250 uM; '*' class symbols; read-out: IL-1β % Inhib. (asterisk classes, 0.1 μM)
Summary of the method: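 THP-1 cells differentiated 16 h with LPS and IFN-γ (100 ng/mL each), re-primed 2 h with LPS, then compound-pretreated 30 min before 250 uM BzATP for 45 min. Supernatant IL-1β quantified by ELISA; background-adjusted percent inhibition fitted to four-parameter logistic for IC50.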

Row | inhibition at 0.1 µM [%] | Structure (SMILES)
1 | 0 to 25 | COc1ccccc1CCC(=O)Nc1cccc2c(=O)n(CCN(C)C)ccc12 [Compound 1149]
2 | 0 to 25 | COCCn1ccc2c(NC(=O)CCc3cccc(OC)c3)cccc2c1=O [Compound 1064]

Same assay, conditions: 0.1 μM compound; differentiated THP-1 cells, BzATP 250 uM; symbols * to ****; read-out: IL-1β % Inhib. (asterisk symbols: at 0.1 μM)

Row | inhibition at 0.1 µM [%] | Structure (SMILES)
3 | 0 to 25 | Cc1cccc(C(=O)Nc2cccc3c(=O)n(CC(C)(C)C)ccc23)c1 [Compound 1246]
4 | 0 to 25 | CC(C)(C)c1ccc(C(=O)Nc2cccc3c(=O)n(CCN4CCOCC4)ccc23)cc1 [Compound 1199]

Same assay, conditions: 0.3 μM compound; differentiated THP-1 cells, BzATP 250 uM; "+" class symbols; read-out: IL-1β % Inhib. @ 0.3 μM

Row | inhibition at 0.3 µM [%] | Structure (SMILES)
5 | 26 to 50 | O=C(Cc1cccc(C(F)(F)F)c1F)Nc1cccc2c(=O)n(Cc3ccccn3)ccc12 [Compound 1627]
6 | 0 to 25 | CN(C)CCn1ccc2c(NC(=O)Cc3ccccc3Br)cccc2c1=O [Compound 1613]

Same assay, conditions: 0.3 μM compound; differentiated THP-1 cells, BzATP 250 uM; '+' class symbols; read-out: IL-1β % Inhib. @ 0.3 μM

Row | inhibition at 0.3 µM [%] | Structure (SMILES)
7 | 26 to 50 | CC(=O)OCCn1ccc2c(NC(=O)c3ccc(C(F)(F)F)cc3C(F)(F)F)cccc2c1=O [Compound 1014]
8 | 0 to 25 | Cc1cc(C)c(CC(=O)Nc2cccc3c(=O)n(Cc4cccnc4)ccc23)c(C)c1 [Compound 1076]
9 | 0 to 25 | CN(C)CCn1ccc2c(NC(=O)Cc3cccc4ccccc34)cccc2c1=O [Compound 1152]
10 | 0 to 25 | CC(C)(C)c1ccc(C(=O)Nc2cccc3c(=O)n(CC4CCOCC4)ccc23)cc1 [Compound 1092]
11 | 0 to 25 | Cc1cc(Cl)ccc1C(=O)Nc1cccc2c(=O)n(CCN(C)C)ccc12 [Compound 1166]
12 | 0 to 25 | Cc1cc(C(=O)Nc2cccc3c(=O)n(CC(C)(C)C)ccc23)ccc1Cl [Compound 1056]
13 | 0 to 25 | CN(C)CCn1ccc2c(NC(=O)Cc3ccccc3F)cccc2c1=O [Compound 1154]
14 | 0 to 25 | Cc1cc(C)cc(CC(=O)Nc2cccc3c(=O)n(CC4CCOCC4)ccc23)c1 [Compound 1121]
15 | 26 to 50 | O=C(CCc1ccccc1Cl)Nc1cccc2c(=O)n(CC3CCOCC3)ccc12 [Compound 1031]
16 | 0 to 25 | O=C(Nc1cccc2c(=O)n(CCN3CCOCC3)ccc12)c1cc(Cl)ccc1Cl [Compound 1190]
17 | 0 to 25 | CC(C)Cc1ccc(C(=O)Nc2cccc3c(=O)n(CCN(C)C)ccc23)cc1 [Compound 1187]
18 | 0 to 25 | Cc1cc(C(=O)Nc2cccc3c(=O)n(CCN(C)C)ccc23)ccc1F [Compound 1175]
19 | 0 to 25 | O=C(CCc1ccc2c(c1)OCO2)Nc1cccc2c(=O)n(Cc3cccnc3)ccc12 [Compound 1080]
20 | 0 to 25 | Cc1ccc(C)c(C(=O)Nc2cccc3c(=O)n(CCN4CCOCC4)ccc23)c1 [Compound 1194]
21 | ≥ 76 | COc1cccc(CC(=O)Nc2cccc3c(=O)n(CCN(C)C)ccc23)c1 [Compound 1021]
22 | 0 to 25 | CCC(C(=O)Nc1cccc2c(=O)n(CCN(C)C)ccc12)c1ccccc1 (centres unmarked) [Compound 1020]
23 | ≥ 76 | Cn1ccc2c(NC(=O)CC3CCCCCC3)cccc2c1=O [Compound 1024, 2-Cycloheptyl-N-(2-methyl-1-oxo-1,2-dihydro-isoquinolin-5-yl)-acetamide]
24 | ≥ 76 | COCCn1ccc2c(NC(=O)CCc3ccccc3Cl)cccc2c1=O [Compound 1069]
25 | 0 to 25 | O=C(Cc1csc2ccccc12)Nc1cccc2c(=O)n(CC3CCOCC3)ccc12 [Compound 1119]
26 | 0 to 25 | COc1ccc(CC(=O)Nc2cccc3c(=O)n(CCN(C)C)ccc23)c(OC)c1 [Compound 1022]

Same assay, conditions: 0.3 μM compound; differentiated THP-1 cells, BzATP 250 uM; symbols + to ++++; read-out: IL-1β % Inhib. @ 0.3 μM

Row | inhibition at 0.3 µM [%] | Structure (SMILES)
27 | 0 to 25 | Cc1ccc(CC(=O)Nc2cccc3c(=O)n(CCN4CCOCC4)ccc23)cc1 [Compound 1214]
28 | 0 to 25 | COc1ccc(CC(=O)Nc2cccc3c(=O)n(CC(C)(C)C)ccc23)cc1OC [Compound 1258]
29 | 0 to 25 | Cc1ccc(CCC(=O)Nc2cccc3c(=O)n(CC(C)(C)C)ccc23)c(C)c1 [Compound 1286]
30 | 0 to 25 | COCCn1ccc2c(NC(=O)c3cc4ccccc4o3)cccc2c1=O [Compound 1320]
31 | 0 to 25 | CC(C(=O)Nc1cccc2c(=O)n(CCN3CCOCC3)ccc12)c1ccccc1 (centres unmarked) [Compound 1200]
32 | 26 to 50 | COCCn1ccc2c(NC(=O)c3ccc(Cl)cc3C)cccc2c1=O [Compound 1325]
33 | 26 to 50 | Cc1ccc(Cl)cc1C(=O)Nc1cccc2c(=O)n(CC(C)(C)C)ccc12 [Compound 1283]
34 | 0 to 25 | O=C(CCCc1ccccc1)Nc1cccc2c(=O)n(CCN3CCOCC3)ccc12 [Compound 1215]
35 | 0 to 25 | COc1ccc(CC(=O)Nc2cccc3c(=O)n(CCN4CCOCC4)ccc23)cc1OC [Compound 1210]
36 | 0 to 25 | O=C(Nc1cccc2c(=O)n(CCN3CCOCC3)ccc12)c1cc2ccccc2o1 [Compound 1216]
37 | 0 to 25 | Cc1ccccc1CC(=O)Nc1cccc2c(=O)n(CCN3CCOCC3)ccc12 [Compound 1208]
38 | 0 to 25 | Cc1ccc(C(=O)Nc2cccc3c(=O)n(CC(C)(C)C)ccc23)cc1Cl [Compound 1268]
39 | 0 to 25 | COCCn1ccc2c(NC(=O)CCCc3ccccc3)cccc2c1=O [Compound 1319]
40 | 26 to 50 | O=C(Nc1cccc2c(=O)n(Cc3cccnc3)ccc12)c1ccccc1Cl [Compound 1344]
41 | 0 to 25 | Cc1cccc(C(=O)Nc2cccc3c(=O)n(C)ccc23)c1C [Compound 1289]
42 | 0 to 25 | Cc1cc(C(=O)Nc2cccc3c(=O)n(CCN4CCOCC4)ccc23)ccc1F [Compound 1231]
43 | 0 to 25 | COCCn1ccc2c(NC(=O)CCc3ccc(C)cc3C)cccc2c1=O [Compound 1341]

Same assay, conditions: THP-1; read-out: IL-1β % Inhib.

Row | inhibition [%] | Structure (SMILES)
44 | 0 to 25 | O=C(Cc1cccc2ccccc12)Nc1cccc2c(=O)n(Cc3ccc(OC(F)(F)F)cc3)ccc12 [Compound 1573]
45 | 0 to 25 | COc1c(C)cc(C(=O)Nc2cccc3c(=O)n(CCCN4CCCC4=O)ccc23)cc1C [Compound 1529]
46 | 0 to 25 | COc1ccc(CC(=O)Nc2cccc3c(=O)n(CCCN4CCCC4=O)ccc23)cc1OC [Compound 1520]
47 | 0 to 25 | COc1cc(OC)cc(C(=O)Nc2cccc3c(=O)n(CCCN4CCCC4=O)ccc23)c1 [Compound 1512]
48 | 26 to 50 | COc1cccc(CCC(=O)Nc2cccc3c(=O)n(CCCN4CCCC4=O)ccc23)c1 [Compound 1497]
49 | 0 to 25 | COCCn1ccc2c(NC(=O)Cc3ccccc3OC)cccc2c1=O [Compound 1437]
50 | 26 to 50 | COc1c(C)cc(C(=O)Nc2cccc3c(=O)n(Cc4ccc(OC(F)(F)F)cc4)ccc23)cc1C [Compound 1590]
51 | 0 to 25 | Cc1cccc(C(=O)Nc2cccc3c(=O)n(Cc4ccc(OC(F)(F)F)cc4)ccc23)c1 [Compound 1567]
52 | 0 to 25 | O=C(Nc1cccc2c(=O)n(Cc3cccnc3)ccc12)c1cccc2ccccc12 [Compound 1447]
53 | 0 to 25 | Cc1cccc(C(=O)Nc2cccc3c(=O)n(CCCN4CCCC4=O)ccc23)c1Cl [Compound 1544]
54 | 0 to 25 | COCCn1ccc2c(NC(=O)c3cc(Cl)ccc3C)cccc2c1=O [Compound 1441]
55 | 0 to 25 | Cc1ccccc1CCC(=O)Nc1cccc2c(=O)n(CCN3CCOCC3)ccc12 [Compound 1404]
56 | 0 to 25 | CC(C(=O)Nc1cccc2c(=O)n(CC3CCN(C)CC3)ccc12)c1ccccc1 (centres unmarked) [Compound 1466]
57 | 0 to 25 | O=C(Cc1ccc2c(c1)OCO2)Nc1cccc2c(=O)n(Cc3ccc(OC(F)(F)F)cc3)ccc12 [Compound 1588]
58 | 0 to 25 | COc1ccccc1CCC(=O)Nc1cccc2c(=O)n(Cc3ccc(OC(F)(F)F)cc3)ccc12 [Compound 1571]
59 | 0 to 25 | O=C(CCc1ccc2c(c1)OCO2)Nc1cccc2c(=O)n(Cc3ccc(OC(F)(F)F)cc3)ccc12 [Compound 1558]
60 | 0 to 25 | Cc1ccccc1C(=O)Nc1cccc2c(=O)n(CCCN3CCCC3=O)ccc12 [Compound 1507]
61 | 0 to 25 | Cc1cc(Cl)ccc1C(=O)Nc1cccc2c(=O)n(Cc3cccnc3)ccc12 [Compound 1452]
62 | 26 to 50 | O=C(Nc1cccc2c(=O)n(CCCN3CCCC3=O)ccc12)c1cccc2c1OCCO2 [Compound 1533]
63 | 0 to 25 | Cc1cc(C(=O)Nc2cccc3c(=O)n(CCCN4CCCC4=O)ccc23)ccc1Cl [Compound 1503]
64 | 0 to 25 | Cc1cccc(CCC(=O)Nc2cccc3c(=O)n(CC4CCN(C)CC4)ccc23)c1 [Compound 1488]

Same assay, conditions: THP-1 cells, BzATP-stimulated IL-1β release, four parameter logistic fit

Row | IC50 [nM] | Structure (SMILES)
65 | 326 | CC(=O)OCCn1ccc2c(NC(=O)c3ccc(C(F)(F)F)cc3C(F)(F)F)cccc2c1=O [Compound 1014]
66 | 416 | O=C(Cc1cccc(C(F)(F)F)c1F)Nc1cccc2c(=O)n(Cc3ccccn3)ccc12 [Compound 1627]
67 | > 1000 | CN(C)CCn1ccc2c(NC(=O)Cc3ccccc3Br)cccc2c1=O [Compound 1613]
68 | > 1000 | COc1cccc(CC(=O)Nc2cccc3c(=O)n(CCN(C)C)ccc23)c1 [Compound 1021]
69 | > 1000 | CCC(C(=O)Nc1cccc2c(=O)n(CCN(C)C)ccc12)c1ccccc1 (centres unmarked) [Compound 1020]
70 | 31.5 | Cn1ccc2c(NC(=O)CC3CCCCCC3)cccc2c1=O [Compound 1024, 2-Cycloheptyl-N-(2-methyl-1-oxo-1,2-dihydro-isoquinolin-5-yl)-acetamide]
71 | > 1000 | COc1ccc(CC(=O)Nc2cccc3c(=O)n(CCN(C)C)ccc23)c(OC)c1 [Compound 1022]
